Measurements as given in ChEMBL document CHEMBL5032530, “Discovery of Benzocyclic Sulfone Derivatives as Potent CXCR2 Antagonists for Cancer Immunotherapy” (J Med Chem, 2021).
Calls of active or inactive are those of the source. The rule behind the calls is not given here.

Key:
[1] = biological target: C-C chemokine receptor type 2 (Homo sapiens) (UniProt P41597); assay: Antagonist activity against CCR2 (unknown origin) assessed as inhibition of beta-arrestin 2 recruitment at 10 microM by beta arrestin assay relative to control; type: functional; set-up: scale not given: the % may be the effect or the level left
C-C chemokine receptor type 2 (Homo sapiens), sequence (P41597 whole entry, looked up): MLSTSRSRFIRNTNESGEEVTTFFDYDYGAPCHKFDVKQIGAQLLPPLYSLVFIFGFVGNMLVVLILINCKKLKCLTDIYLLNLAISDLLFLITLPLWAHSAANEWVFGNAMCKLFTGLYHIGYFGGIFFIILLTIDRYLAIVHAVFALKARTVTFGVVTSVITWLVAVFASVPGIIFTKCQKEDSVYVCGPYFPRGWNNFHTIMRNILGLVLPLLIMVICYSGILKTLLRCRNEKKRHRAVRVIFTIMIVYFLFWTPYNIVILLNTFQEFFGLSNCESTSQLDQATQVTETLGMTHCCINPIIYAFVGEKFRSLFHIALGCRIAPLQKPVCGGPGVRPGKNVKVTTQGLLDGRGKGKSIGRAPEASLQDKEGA

[2] = biological target: C-C chemokine receptor type 5 (Homo sapiens) (UniProt P51681); assay: Agonist activity against CCR5 (unknown origin) assessed as induction of beta-arrestin 2 recruitment at 10 microM by beta arrestin assay relative to control; type: functional
C-C chemokine receptor type 5 (Homo sapiens), sequence (P51681 whole entry, looked up): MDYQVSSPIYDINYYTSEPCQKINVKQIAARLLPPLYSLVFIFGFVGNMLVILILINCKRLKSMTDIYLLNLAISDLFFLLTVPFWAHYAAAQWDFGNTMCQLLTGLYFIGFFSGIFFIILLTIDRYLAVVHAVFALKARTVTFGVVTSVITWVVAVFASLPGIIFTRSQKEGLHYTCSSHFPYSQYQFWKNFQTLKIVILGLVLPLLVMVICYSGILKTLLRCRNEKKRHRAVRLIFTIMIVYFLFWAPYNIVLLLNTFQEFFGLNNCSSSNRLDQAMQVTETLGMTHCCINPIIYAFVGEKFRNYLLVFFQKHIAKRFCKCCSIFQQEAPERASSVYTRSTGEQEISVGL

[3] = biological target: C-C chemokine receptor type 7 (Homo sapiens) (UniProt P32248); assay: Antagonist activity against CCR7 (unknown origin) assessed as inhibition of beta-arrestin 2 recruitment at 10 microM by beta arrestin assay relative to control; type: functional; set-up: scale not given: the % may be the effect or the level left
C-C chemokine receptor type 7 (Homo sapiens), sequence (P32248 whole entry): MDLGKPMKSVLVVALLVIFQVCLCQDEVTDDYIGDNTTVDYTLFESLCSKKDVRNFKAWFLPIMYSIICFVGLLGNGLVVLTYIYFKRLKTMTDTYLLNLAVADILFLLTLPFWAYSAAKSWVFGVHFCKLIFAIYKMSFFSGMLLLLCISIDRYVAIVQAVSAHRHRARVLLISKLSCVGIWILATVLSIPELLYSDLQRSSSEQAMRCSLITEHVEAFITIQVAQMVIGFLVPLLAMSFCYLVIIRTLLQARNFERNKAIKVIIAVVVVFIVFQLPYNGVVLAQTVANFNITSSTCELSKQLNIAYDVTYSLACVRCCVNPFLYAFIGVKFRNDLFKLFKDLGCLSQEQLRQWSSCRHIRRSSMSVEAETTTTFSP

[4] = biological target: C-C chemokine receptor type 8 (Homo sapiens) (UniProt P51685); assay: Agonist activity against CCR8 (unknown origin) assessed as induction of beta-arrestin 2 recruitment at 10 microM by beta arrestin assay relative to control; type: functional
C-C chemokine receptor type 8 (Homo sapiens), sequence (P51685 whole entry): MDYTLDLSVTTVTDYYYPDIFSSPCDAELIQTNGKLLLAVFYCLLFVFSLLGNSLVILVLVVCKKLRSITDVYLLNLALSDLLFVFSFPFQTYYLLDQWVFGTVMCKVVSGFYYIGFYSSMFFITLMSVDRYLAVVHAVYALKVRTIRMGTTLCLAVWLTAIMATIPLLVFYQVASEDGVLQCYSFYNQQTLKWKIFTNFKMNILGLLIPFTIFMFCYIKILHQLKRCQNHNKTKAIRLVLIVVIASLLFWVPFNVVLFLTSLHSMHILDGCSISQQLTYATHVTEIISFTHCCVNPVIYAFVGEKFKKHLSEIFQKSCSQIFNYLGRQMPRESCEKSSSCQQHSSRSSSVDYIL

[5] = biological target: C-C chemokine receptor type 9 (Homo sapiens) (UniProt P51686); assay: Agonist activity against CCR9 (unknown origin) assessed as induction of beta-arrestin 2 recruitment at 10 microM by beta arrestin assay relative to control; type: functional
C-C chemokine receptor type 9 (Homo sapiens), sequence (P51686 whole entry): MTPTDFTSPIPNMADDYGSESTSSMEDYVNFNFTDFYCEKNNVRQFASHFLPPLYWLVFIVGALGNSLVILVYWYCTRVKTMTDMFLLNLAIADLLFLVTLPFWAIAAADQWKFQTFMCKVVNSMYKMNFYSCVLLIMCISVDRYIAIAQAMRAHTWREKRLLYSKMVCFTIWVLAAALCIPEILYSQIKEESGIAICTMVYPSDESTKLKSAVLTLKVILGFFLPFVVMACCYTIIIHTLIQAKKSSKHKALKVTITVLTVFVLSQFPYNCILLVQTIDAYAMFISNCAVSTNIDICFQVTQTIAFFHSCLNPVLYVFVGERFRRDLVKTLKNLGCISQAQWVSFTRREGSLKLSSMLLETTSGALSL

[6] = biological target: C-C chemokine receptor type 9 (Homo sapiens) (UniProt P51686); assay: Antagonist activity against CCR9 (unknown origin) assessed as inhibition of beta-arrestin 2 recruitment at 10 microM by beta arrestin assay relative to control; type: functional; set-up: scale not given: the % may be the effect or the level left
[7] = biological target: C-C chemokine receptor type 10 (Homo sapiens) (UniProt P46092); assay: Agonist activity against CCR10 (unknown origin) assessed as induction of beta-arrestin 2 recruitment at 10 microM by beta arrestin assay relative to control; type: functional
C-C chemokine receptor type 10 (Homo sapiens), sequence (P46092 whole entry): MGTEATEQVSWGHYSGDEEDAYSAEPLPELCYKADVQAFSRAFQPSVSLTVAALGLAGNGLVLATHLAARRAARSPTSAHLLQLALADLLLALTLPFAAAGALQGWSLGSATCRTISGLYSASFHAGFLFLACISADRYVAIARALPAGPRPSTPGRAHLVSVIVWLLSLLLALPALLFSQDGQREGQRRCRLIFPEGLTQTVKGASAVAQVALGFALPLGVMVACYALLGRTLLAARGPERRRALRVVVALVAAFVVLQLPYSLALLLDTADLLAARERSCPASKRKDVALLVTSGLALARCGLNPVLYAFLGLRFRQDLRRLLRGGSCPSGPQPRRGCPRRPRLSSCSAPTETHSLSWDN

[8] = biological target: CX3C chemokine receptor 1 (Homo sapiens) (UniProt P49238); assay: Agonist activity against CX3CR1 (unknown origin) assessed as induction of beta-arrestin 2 recruitment at 10 microM by beta arrestin assay relative to control; type: functional
CX3C chemokine receptor 1 (Homo sapiens), sequence (P49238 whole entry): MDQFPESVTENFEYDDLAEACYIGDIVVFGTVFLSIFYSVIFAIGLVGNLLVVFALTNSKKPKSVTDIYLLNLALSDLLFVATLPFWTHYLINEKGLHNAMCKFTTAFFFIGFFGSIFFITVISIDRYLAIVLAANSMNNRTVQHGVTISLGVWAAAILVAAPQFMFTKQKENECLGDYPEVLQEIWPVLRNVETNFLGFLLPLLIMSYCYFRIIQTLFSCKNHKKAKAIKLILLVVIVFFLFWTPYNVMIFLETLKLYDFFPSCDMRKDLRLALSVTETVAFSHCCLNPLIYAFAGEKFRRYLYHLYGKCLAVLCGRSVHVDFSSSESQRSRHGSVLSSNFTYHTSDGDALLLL

[9] = biological target: CX3C chemokine receptor 1 (Homo sapiens) (UniProt P49238); assay: Antagonist activity against CX3CR1 (unknown origin) assessed as inhibition of beta-arrestin 2 recruitment at 10 microM by beta arrestin assay relative to control; type: functional; set-up: scale not given: the % may be the effect or the level left
[10] = biological target: C-X-C chemokine receptor type 1 (Homo sapiens) (UniProt P25024); assay: Agonist activity against CXCR1 (unknown origin) assessed as induction of beta-arrestin 2 recruitment at 10 microM by beta arrestin assay relative to control; type: functional
C-X-C chemokine receptor type 1 (Homo sapiens), sequence (P25024 whole entry): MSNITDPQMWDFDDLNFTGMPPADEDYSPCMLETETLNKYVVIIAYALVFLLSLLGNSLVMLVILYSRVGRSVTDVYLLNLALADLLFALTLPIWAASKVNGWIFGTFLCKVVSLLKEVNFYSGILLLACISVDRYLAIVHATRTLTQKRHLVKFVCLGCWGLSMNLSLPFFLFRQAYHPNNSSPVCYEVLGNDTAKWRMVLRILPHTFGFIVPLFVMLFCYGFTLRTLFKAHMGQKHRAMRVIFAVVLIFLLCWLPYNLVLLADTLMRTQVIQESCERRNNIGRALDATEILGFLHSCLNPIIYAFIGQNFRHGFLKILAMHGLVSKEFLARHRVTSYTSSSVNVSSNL

[11] = biological target: C-X-C chemokine receptor type 1 (Homo sapiens) (UniProt P25024); assay: Antagonist activity against CXCR1 (unknown origin) assessed as inhibition of beta-arrestin 2 recruitment at 10 microM by beta arrestin assay relative to control; type: functional; set-up: scale not given: the % may be the effect or the level left
[12] = biological target: C-X-C chemokine receptor type 2 (Homo sapiens) (UniProt P25025); assay: Antagonist activity against CXCR2 (unknown origin) assessed as inhibition of beta-arrestin 2 recruitment at 10 microM by beta arrestin assay relative to control; type: functional; set-up: scale not given: the % may be the effect or the level left; settings: filed as antagonist
C-X-C chemokine receptor type 2 (Homo sapiens), sequence (P25025 whole entry): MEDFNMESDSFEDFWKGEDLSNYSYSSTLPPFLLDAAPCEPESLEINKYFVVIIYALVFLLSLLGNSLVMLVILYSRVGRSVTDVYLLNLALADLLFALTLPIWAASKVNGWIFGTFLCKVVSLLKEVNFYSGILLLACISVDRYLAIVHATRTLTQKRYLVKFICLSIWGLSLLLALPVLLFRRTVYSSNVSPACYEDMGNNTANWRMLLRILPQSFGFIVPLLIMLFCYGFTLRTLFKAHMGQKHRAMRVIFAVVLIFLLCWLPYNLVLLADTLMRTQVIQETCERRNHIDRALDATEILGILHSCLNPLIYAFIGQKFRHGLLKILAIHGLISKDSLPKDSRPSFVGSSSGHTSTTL

[13] = biological target: C-X-C chemokine receptor type 3 (Homo sapiens) (UniProt P49682); assay: Antagonist activity against CXCR3 (unknown origin) assessed as inhibition of beta-arrestin 2 recruitment at 10 microM by beta arrestin assay relative to control; type: functional; set-up: scale not given: the % may be the effect or the level left
C-X-C chemokine receptor type 3 (Homo sapiens), sequence (P49682 whole entry): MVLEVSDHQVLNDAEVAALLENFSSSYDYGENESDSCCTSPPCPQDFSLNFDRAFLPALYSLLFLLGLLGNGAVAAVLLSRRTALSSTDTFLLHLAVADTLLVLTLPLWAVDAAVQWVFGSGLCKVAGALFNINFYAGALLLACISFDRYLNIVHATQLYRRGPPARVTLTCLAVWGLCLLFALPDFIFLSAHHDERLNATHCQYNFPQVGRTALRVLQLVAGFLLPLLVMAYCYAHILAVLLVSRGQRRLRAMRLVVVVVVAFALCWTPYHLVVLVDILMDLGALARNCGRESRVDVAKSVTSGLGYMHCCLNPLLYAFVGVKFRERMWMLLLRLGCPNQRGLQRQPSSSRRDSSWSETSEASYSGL

[14] = biological target: C-X-C chemokine receptor type 4 (Homo sapiens) (UniProt P61073); assay: Antagonist activity against CXCR4 (unknown origin) assessed as inhibition of beta-arrestin 2 recruitment at 10 microM by beta arrestin assay relative to control; type: functional; set-up: scale not given: the % may be the effect or the level left
C-X-C chemokine receptor type 4 (Homo sapiens), sequence (P61073 whole entry): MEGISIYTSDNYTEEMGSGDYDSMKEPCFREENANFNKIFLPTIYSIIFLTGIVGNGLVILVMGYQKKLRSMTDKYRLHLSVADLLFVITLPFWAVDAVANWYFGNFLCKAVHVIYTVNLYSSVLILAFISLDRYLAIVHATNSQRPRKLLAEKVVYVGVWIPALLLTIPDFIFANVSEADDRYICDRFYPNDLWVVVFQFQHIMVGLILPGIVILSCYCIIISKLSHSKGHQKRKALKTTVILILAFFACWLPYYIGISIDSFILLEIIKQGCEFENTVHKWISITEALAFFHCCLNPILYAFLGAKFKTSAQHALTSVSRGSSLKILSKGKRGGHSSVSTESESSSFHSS

[15] = biological target: C-X-C chemokine receptor type 5 (Homo sapiens) (UniProt P32302); assay: Agonist activity against CXCR5 (unknown origin) assessed as induction of beta-arrestin 2 recruitment at 10 microM by beta arrestin assay relative to control; type: functional
C-X-C chemokine receptor type 5 (Homo sapiens), sequence (P32302 whole entry): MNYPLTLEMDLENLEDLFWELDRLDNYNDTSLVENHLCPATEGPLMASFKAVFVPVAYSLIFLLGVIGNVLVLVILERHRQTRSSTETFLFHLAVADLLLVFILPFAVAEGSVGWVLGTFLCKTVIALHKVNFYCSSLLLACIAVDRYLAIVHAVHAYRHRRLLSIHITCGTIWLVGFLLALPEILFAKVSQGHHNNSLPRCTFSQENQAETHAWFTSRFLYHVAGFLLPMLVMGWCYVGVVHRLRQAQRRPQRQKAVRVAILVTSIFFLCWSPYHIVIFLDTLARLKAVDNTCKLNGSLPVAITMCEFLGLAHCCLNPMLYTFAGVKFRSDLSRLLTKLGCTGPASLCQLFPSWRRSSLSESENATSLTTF

[16] = biological target: C-X-C chemokine receptor type 5 (Homo sapiens) (UniProt P32302); assay: Antagonist activity against CXCR5 (unknown origin) assessed as inhibition of beta-arrestin 2 recruitment at 10 microM by beta arrestin assay relative to control; type: functional; set-up: scale not given: the % may be the effect or the level left
[17] = biological target: Atypical chemokine receptor 3 (Homo sapiens) (UniProt P25106); assay: Agonist activity against CXCR7 (unknown origin) assessed as induction of beta-arrestin 2 recruitment at 10 microM by beta arrestin assay relative to control; type: functional
Atypical chemokine receptor 3 (Homo sapiens), sequence (P25106 whole entry): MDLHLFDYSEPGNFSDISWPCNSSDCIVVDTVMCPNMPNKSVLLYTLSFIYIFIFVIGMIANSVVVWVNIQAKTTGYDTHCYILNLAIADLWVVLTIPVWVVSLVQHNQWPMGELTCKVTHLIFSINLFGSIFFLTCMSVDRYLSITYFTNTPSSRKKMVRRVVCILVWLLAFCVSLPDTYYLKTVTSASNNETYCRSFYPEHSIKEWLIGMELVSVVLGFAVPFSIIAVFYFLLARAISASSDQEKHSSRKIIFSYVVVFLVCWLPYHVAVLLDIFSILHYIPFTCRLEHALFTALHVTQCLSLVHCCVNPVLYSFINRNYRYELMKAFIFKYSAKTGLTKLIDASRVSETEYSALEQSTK

[18] = biological target: Atypical chemokine receptor 3 (Homo sapiens) (UniProt P25106); assay: Antagonist activity against CXCR7 (unknown origin) assessed as inhibition of beta-arrestin 2 recruitment at 10 microM by beta arrestin assay relative to control; type: functional; set-up: scale not given: the % may be the effect or the level left
[19] = Tmax in ICR mouse at 3 mg/kg, iv measured upto 48 hrs; type: ADME, organism-based; settings: in vivo
[20] = Cmax in ICR mouse at 3 mg/kg, iv measured upto 48 hrs; type: ADME, organism-based; set-up: route intravenous, dose 3 mg/kg, time <=48; settings: in vivo
[21] = Cmax in ICR mouse at 30 mg/kg, po measured upto 48 hrs; type: ADME, organism-based; set-up: route oral, dose 30 mg/kg, time <=48; settings: in vivo
[22] = AUC (0 to infinity) in ICR mouse at 30 mg/kg, po measured upto 48 hrs; type: ADME, organism-based; set-up: route oral, dose 30 mg/kg, time <=48; settings: ICR, in vivo
[23] = Clearance in ICR mouse at 3 mg/kg, iv measured upto 48 hrs; type: ADME, organism-based; settings: in vivo
[24] = Clearance in ICR mouse at 30 mg/kg, po measured upto 48 hrs; type: ADME, organism-based; settings: ICR, in vivo
Neutrophil = assay: In vivo antagonist activity at CXCR2 in carrageenan-induced C57BL/6 mouse air pouch inflammation model assessed as reduction in neutrophil infiltration into air pouch at 30 mg/kg, po bid administered after 3 days of carrageenan treatment for 3 days; type: functional, organism-based; settings: time 3.0 day
Panc02 [25] = assay: Cytotoxicity against mouse Panc02 cells assessed as reduction in cell viability measured after 72 hrs by CCK8 assay; type: cell-based; settings: panc02, 72 h
PANC-1 = assay: Cytotoxicity against human PanC-1 cells assessed as reduction in cell viability measured after 72 hrs by CCK8 assay; type: cell-based; settings: PANC-1, 72 h
MIA PaCa-2 = assay: Cytotoxicity against human MIA PaCa-2 cells assessed as reduction in cell viability measured after 72 hrs by CCK8 assay; type: cell-based; settings: MIA PaCa-2, 72 h
Panc02 [26] = assay: Antitumour activity against mouse Panc02 cells xenografted in mouse assessed as reduction in infiltration of neutrophils into tumor tissue at 3 mg/kg, po bid measured after 15 days by flow cytometry analysis; type: functional, organism-based; settings: time 15.0 day
Panc02 [27] = assay: Antitumour activity against mouse Panc02 cells xenografted in mouse assessed as reduction in infiltration of granulocytic MDSCs into tumor tissue at 3 mg/kg, po bid measured after 15 days by flow cytometry analysis; type: functional, organism-based; settings: time 15.0 day
Panc02 [28] = assay: Antitumour activity against mouse Panc02 cells xenografted in mouse assessed as change in Gr1 expressing immune cells infiltration into tumor tissue at 10 mg/kg, po bid measured after 15 days by flow cytometry analysis (reference value: 27.4%); type: functional; settings: time 15 day
Panc02 [29] = assay: Antitumour activity against mouse Panc02 cells xenografted in mouse assessed as change in CD11b expressing immune cells infiltration into tumor tissue using LY6G antibody at 10 mg/kg, po bid measured after 15 days by flow cytometry analysis (reference value: 29.7%); type: functional; settings: time 15 day
Panc02 [30] = assay: Antitumour activity against mouse Panc02 cells xenografted in mouse assessed as change in CD11b expressing immune cells infiltration into tumor tissue using LY6C antibody at 10 mg/kg, po bid measured after 15 days by flow cytometry analysis (reference value: 20.5%); type: functional; settings: time 15 day
Panc02 [31] = assay: Antitumour activity against mouse Panc02 cells xenografted in mouse assessed as reduction in infiltration of neutrophils into tumor tissue at 30 mg/kg, po bid measured after 15 days by immunohistochemical analysis; type: functional, organism-based; settings: time 15.0 day
Mus musculus = assay: Effect on granulocytic MDSCs level in mouse xenografted with […] cells at 10 to 30 mg/kg, po bid measured after 15 days by immunohistochemical analysis; type: ADME, organism-based; settings: in vivo, 360 h, dose 10-30 mg/kg, time 15 day

SMILES: Cc1c(F)cccc1NC(=O)Nc1ccc2c(c1O)S(=O)(=O)CCC2
- Activity [1]: 17%
- Activity [2]: < 10%
- Activity [3]: 20%
- Activity [4]: < 10%
- Activity [5]: < 10%
- Activity [6]: 14%
- Activity [7]: < 10%
- Activity [8]: < 10%
- Activity [9]: < 10%
- Activity [10]: < 10%
- Activity [11]: 33%
- Activity [12]: 109%
- Activity [13]: < 10%
- Activity [14]: 12%
- Activity [15]: < 10%
- Activity [16]: 11%
- Activity [17]: < 10%
- Activity [18]: 15%
- Tmax [19]: 1.8 min
- Cmax [20]: 873 ng/mL
- Cmax [21]: 19 ng/mL
- AUC(0-inf) [22]: 229 ng·h/mL
- clearance [23]: 137 mL/min/kg
- CL/F [24]: 2190 mL/min/kg
- Activity (Neutrophil): Active
- Activity (Panc02 [25]): Non-Toxic
- IC50 (PANC-1): > 10 µM
- IC50 (MIA PaCa-2): > 10 µM
- Activity (Panc02 [26]): Active
- Activity (Panc02 [27]): Active
- Activity (Panc02 [28]): 11.2%
- Activity (Panc02 [29]): 14%
- Activity (Panc02 [30]): 15.6%
- Activity (Panc02 [31]): Active
- Activity (Mus musculus): Non-Toxic
